Data as given in ChEMBL document CHEMBL1201862, “PubChem BioAssay data set” (2004).
Counter-ions that a name gives are not always drawn. The source made the active and inactive calls.

How the values were obtained:
[1] = biological target: T1, Cysteine protease ATG4B (Homo sapiens, UniProt Q9Y4P1); assay type: functional;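 also: Fluorescence-based dose-response confirmation assay measuring inhibition of ATG4B activity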
T1 sequence (Q9Y4P1 whole entry): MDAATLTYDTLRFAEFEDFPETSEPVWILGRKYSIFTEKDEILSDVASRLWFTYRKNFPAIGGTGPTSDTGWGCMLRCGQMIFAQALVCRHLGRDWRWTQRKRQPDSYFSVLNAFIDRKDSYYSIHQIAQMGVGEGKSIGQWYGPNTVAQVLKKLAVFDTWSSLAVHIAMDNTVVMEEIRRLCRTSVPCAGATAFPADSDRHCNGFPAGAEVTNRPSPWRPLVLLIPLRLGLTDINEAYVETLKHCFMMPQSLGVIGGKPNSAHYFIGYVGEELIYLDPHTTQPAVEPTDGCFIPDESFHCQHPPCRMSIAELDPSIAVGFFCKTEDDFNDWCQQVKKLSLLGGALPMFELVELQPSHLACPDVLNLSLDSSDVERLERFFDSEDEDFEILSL

[2] = biological target: Phospholipase A2 (Homo sapiens, UniProt P04054); assay type: functional;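 also: confirmatory dose-response counterscreen on phospholipase A2, testing hits that came from an ultra-high-throughput screen for ATG4B inhibitors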
Chain of Phospholipase A2 (P04054 whole entry): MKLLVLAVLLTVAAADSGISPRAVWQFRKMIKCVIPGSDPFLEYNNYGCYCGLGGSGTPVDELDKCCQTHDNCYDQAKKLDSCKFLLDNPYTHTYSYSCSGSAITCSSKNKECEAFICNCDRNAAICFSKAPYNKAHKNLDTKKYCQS

[3] = biological target: Cytochrome P450 2C9 (Homo sapiens, UniProt P11712)
Chain of Cytochrome P450 2C9 (P11712 whole entry): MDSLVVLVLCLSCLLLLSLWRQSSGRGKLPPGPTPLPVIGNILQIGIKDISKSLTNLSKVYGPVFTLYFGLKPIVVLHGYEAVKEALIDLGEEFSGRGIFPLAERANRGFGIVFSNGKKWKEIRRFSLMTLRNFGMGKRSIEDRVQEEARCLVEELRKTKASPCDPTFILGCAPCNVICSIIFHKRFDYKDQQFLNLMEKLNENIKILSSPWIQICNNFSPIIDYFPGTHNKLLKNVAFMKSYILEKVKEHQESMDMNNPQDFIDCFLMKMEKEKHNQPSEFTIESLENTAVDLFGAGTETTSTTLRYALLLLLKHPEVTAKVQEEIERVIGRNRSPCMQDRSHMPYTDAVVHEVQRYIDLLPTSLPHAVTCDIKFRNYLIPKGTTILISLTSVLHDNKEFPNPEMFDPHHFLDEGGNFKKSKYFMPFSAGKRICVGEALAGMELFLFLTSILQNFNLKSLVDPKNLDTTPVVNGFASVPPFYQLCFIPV

[4] = biological target: T2, Sentrin-specific protease 8 (Homo sapiens, UniProt Q96LD8); assay type: functional;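 also: luminescence read-out of SENP8 inhibition, dose-response confirmation following an ultra-high-throughput screen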
T2 sequence (Q96LD8 whole entry): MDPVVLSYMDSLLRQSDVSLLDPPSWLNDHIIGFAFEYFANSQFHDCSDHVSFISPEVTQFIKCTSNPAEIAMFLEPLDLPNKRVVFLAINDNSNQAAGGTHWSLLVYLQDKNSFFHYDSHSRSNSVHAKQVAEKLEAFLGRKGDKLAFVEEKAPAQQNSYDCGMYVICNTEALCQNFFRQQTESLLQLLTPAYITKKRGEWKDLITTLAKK

[5] = biological target: T3, Caspase-3 (Homo sapiens, UniProt P42574); assay type: functional;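 also: Dose-response selectivity test against caspase-3 for candidate inhibitors of sentrin-specific proteases (SENPs)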
T3 sequence (P42574 whole entry): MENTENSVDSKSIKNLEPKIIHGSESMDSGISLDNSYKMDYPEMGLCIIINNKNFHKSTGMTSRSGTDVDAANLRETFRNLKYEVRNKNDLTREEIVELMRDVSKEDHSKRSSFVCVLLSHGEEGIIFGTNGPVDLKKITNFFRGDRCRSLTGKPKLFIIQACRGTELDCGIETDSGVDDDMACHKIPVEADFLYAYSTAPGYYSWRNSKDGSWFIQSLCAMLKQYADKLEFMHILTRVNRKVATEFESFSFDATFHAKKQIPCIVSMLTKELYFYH

[6] = biological target: T4, Sentrin-specific protease 7 (Homo sapiens, UniProt Q9BQF6); assay type: functional;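 also: Luminescence-based dose-response confirmation of ultra-high-throughput screening hits, measuring inhibition of SENP7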
T4 sequence (Q9BQF6 whole entry): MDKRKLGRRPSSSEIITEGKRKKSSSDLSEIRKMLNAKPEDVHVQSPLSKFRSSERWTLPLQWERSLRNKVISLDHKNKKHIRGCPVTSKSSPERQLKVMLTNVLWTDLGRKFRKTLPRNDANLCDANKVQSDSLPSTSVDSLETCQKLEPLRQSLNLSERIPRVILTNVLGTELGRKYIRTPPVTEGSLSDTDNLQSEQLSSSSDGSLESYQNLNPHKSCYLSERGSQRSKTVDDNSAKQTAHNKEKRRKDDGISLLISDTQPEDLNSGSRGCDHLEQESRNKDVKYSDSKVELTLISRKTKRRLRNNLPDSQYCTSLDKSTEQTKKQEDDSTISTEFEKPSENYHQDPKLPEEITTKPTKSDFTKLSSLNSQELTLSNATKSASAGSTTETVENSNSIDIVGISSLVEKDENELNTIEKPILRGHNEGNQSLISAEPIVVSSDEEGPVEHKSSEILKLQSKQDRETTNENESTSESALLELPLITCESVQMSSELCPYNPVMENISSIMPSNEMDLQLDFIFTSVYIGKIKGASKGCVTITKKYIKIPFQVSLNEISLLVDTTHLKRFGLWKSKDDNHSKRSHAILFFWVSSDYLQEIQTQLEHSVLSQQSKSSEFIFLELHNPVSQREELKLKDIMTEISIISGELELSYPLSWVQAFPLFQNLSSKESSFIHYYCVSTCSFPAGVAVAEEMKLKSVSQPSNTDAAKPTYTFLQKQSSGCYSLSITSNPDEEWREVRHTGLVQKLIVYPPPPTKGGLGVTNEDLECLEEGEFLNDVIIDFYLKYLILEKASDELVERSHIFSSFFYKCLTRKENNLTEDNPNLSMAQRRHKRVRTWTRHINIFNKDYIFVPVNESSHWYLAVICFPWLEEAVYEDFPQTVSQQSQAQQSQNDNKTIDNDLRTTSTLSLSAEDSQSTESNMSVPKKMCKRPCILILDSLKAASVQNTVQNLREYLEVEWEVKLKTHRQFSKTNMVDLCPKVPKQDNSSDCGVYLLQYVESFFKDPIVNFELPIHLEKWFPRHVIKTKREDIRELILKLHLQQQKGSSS

[7] = biological target: T5, Sentrin-specific protease 6 (Homo sapiens, UniProt Q9GZR1); assay type: functional;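 also: Luminescence-based dose-response confirmatory assay of SENP6 inhibition, following up an ultra-high-throughput screen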
T5 sequence (Q9GZR1 whole entry): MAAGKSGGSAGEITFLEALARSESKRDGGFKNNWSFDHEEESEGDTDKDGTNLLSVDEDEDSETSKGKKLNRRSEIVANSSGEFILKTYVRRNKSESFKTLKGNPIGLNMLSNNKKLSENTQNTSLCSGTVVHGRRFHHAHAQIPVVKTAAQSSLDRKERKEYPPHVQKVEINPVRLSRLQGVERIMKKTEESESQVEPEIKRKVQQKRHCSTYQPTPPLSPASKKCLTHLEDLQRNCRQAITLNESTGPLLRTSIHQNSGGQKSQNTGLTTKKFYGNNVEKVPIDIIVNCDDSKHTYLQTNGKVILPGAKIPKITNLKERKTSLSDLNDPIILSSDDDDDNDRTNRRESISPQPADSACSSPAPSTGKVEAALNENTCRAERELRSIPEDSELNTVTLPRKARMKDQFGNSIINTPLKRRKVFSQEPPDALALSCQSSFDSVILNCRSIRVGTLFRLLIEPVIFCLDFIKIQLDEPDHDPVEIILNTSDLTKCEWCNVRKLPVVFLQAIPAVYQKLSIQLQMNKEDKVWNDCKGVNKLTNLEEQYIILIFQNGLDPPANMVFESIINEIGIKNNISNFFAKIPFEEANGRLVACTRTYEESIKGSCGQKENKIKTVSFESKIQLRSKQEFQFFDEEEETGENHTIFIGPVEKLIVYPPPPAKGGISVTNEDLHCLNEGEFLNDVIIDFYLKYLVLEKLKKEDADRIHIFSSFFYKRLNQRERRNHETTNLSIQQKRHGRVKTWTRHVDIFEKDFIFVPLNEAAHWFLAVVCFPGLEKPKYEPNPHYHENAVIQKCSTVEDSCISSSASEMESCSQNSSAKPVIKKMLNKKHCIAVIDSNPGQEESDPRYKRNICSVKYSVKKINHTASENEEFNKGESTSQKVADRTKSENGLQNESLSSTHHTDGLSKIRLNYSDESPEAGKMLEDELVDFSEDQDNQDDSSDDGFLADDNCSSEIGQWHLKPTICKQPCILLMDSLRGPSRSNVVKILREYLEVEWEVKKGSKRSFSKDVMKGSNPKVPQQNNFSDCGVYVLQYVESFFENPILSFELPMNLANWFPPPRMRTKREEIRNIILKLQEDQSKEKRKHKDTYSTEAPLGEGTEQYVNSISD

[8] = biological target: T6, High affinity choline transporter 1 (Homo sapiens, UniProt Q9GZV3); assay: CHT inhibitors, dose response, cell-based, 5-point CRC, membrane potential dye (AID 504840); assay type: functional
T6 sequence (Q9GZV3 whole entry): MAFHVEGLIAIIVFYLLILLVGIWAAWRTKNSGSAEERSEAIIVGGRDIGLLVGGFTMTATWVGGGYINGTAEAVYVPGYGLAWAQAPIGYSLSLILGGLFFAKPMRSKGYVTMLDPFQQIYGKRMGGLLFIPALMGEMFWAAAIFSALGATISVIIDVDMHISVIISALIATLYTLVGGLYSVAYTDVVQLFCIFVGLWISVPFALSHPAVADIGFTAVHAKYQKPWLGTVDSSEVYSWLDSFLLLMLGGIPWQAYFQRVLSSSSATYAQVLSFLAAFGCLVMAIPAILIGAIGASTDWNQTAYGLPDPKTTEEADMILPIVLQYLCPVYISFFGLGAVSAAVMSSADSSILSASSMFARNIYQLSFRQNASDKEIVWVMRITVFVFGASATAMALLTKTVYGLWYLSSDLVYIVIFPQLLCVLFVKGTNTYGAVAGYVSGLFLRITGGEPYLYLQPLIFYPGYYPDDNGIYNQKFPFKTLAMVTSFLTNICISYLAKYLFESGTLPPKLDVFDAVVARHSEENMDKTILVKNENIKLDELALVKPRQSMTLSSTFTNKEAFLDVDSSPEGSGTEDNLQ

[9] = biological target: T6, High affinity choline transporter 1; assay: CHT inhibitors, dose response, cell-based, 10-point CRC, membrane potential dye (AID 588401); assay type: functional;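 also: membrane potential dye fluorescence of choline-evoked depolarization via CHT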
[10] = biological target: Adenosylmethionine-8-amino-7-oxononanoate aminotransferase (Mycobacterium tuberculosis, UniProt P9WQ81); assay: Mycobacterium tuberculosis BioA enzyme inhibitor Measured in Biochemical System Using Plate Reader - 2163-02_Inhibitor_Dose_CherryPick_Activity.; assay type: functional, Mycobacterium tuberculosis UT205
Chain of Adenosylmethionine-8-amino-7-oxononanoate aminotransferase (P9WQ81 whole entry): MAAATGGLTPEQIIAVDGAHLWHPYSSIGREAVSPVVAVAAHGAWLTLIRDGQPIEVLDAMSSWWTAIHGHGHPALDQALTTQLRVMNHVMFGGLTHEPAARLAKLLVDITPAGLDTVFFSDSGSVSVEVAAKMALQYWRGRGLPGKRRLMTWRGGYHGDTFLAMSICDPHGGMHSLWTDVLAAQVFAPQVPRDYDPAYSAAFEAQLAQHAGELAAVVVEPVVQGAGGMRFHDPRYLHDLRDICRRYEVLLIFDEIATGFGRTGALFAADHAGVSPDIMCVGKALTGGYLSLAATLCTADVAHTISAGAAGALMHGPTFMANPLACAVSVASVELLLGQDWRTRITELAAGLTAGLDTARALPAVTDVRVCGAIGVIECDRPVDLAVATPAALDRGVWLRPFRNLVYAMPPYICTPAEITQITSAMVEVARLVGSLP

[11] = biological target: Eukaryotic translation initiation factor 4E (Mus musculus, UniProt P63073); assay: eIF4E–eIF4G protein interaction inhibitors, dose response, biochemical, TR-FRET (AID 855); assay type: functional;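 also: potency for disrupting eIF4E binding to eIF4GI seen as loss of FRET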
Chain of Eukaryotic translation initiation factor 4E (P63073 whole entry): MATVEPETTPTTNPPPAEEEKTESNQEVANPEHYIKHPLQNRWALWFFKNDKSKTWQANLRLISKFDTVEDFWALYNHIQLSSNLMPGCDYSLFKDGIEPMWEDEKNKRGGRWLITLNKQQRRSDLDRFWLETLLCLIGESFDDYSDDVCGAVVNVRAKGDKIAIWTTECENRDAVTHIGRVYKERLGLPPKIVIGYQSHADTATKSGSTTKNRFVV

[12] = test system: SN12K1; assay: cells; assay type: functional; details: Homo sapiens
[13] = control 3'UTR Renilla luciferase suppression, dose response, counter-screen for Shn3 inhibitor project, cell-based, Clone20-Shn3RL, cherry-picked (AID 624133); assay type: functional
[14] = test system: P388/ADR; assay: cells; assay type: functional; details: Mus musculus
[15] = HepG2 cell cytotoxicity, dose response, cytotoxicity control for Shn3 inhibitor project, CellTiter-Glo, cherry-picked (AID 624134); assay type: functional, cell-based
[16] = Shn3 3'UTR reporter inhibitors, dose response, cell-based, Clone20 osteoblasts, firefly luciferase, cherry-picked (AID 624132); assay type: functional;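 also: firefly luciferase luminescence from reporter carrying the Shn3 3'UTR in osteoblasts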
[17] = test system: P388; assay: cells; assay type: functional; details: Mus musculus
[18] = biological target: Heat shock protein HSP 90-alpha (Homo sapiens, UniProt P07900); assay type: functional, organism-based
[19] = biological target: T7, Ubiquitin-conjugating enzyme E2 N (Homo sapiens, UniProt P61088); assay type: functional;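 also: Dose-response confirmation in a TR-FRET assay detecting UBC13-driven polyubiquitin chain formation, inhibition measured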
T7 sequence (P61088 whole entry): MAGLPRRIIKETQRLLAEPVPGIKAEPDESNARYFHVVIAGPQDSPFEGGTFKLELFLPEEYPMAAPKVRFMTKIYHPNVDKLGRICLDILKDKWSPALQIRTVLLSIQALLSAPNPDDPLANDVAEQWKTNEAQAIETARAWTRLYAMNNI

[20] = cytotoxicity in KRAS-transformed pancreatic duct cells, primary screen, cell-based, fluorescence, HTS (AID 431); assay type: functional; details: Homo sapiens;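 also: cell line used: HPDE-C7K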
[21] = Luminescence Cell-Based Dose Retest to Confirm Inhibitors of Cancer Stem Cells. [Related pubchem assays (depositor defined):AID2717, AID2721]; assay type: functional; details: Homo sapiens

With Cc1noc(C)c1COc1ccc(C(=O)OCC(=O)NCc2ccccc2Cl)cc1 the IC50 [1] was 22.5 µM (inactive) and the IC50 [2] was 6.59 µM (active).
In the case of NC(=O)c1ccc(-c2ncc(-c3ccccc3)o2)cc1, the AC50 [3] is reported as 2.51 µM (inconclusive), the IC50 [4] is reported as 51.7 µM (active) and the IC50 [5] is reported as 13.1 µM (active). The IC50 [6] was 6.11 µM (active) and the IC50 [7] was 33.9 µM (active).
In the case of O=[N+]([O-])c1ccc(Sc2ncc3ccccn23)nc1, the IC50 [8] is reported as 3.9 µM (active) and the IC50 [9] is reported as 1.13 µM (active).
For C[C@@H](C(=O)N1CCN(Cc2ccc3c(c2)OCO3)CC1)n1nnc2ccccc2c1=O, the AC50 [10] was 4.11 µM (active).
For O=C(COC(=O)c1ccc([N+](=O)[O-])s1)NCc1ccccc1, the IC50 [4] was 12.9 µM (active), the IC50 [5] was 23.4 µM (active) and the IC50 [6] was 19.1 µM (active). The IC50 [7] was 12.8 µM (active).
In the case of CCn1cnc2sc(-c3ccccc3)cc2c1=O, the IC50 [4] is reported as 43.8 µM (active), the IC50 [5] is reported as 12.5 µM (active) and the IC50 [6] is reported as 9.66 µM (active). For the same compound, the IC50 [7] was 32.2 µM (active).
With O=c1[nH]ncc(N2CCCC2)c1Cl the IC50 [8] was 8.71 µM (active), the IC50 [9] was 7.51 µM (active) and the IC50 [11] was 50 µM (inactive).
With NC(=O)/C(=C\c1ccccc1)NC(=O)/C=C/c1ccccc1 the IC50 [1] was 19.1 µM (active) and the IC50 [2] was 15.5 µM (active).
For O=C(Nc1ccccc1N1CCN(c2ccccc2)CC1)c1ccccc1, the IC50 [1] was 9.27 µM (active) and the IC50 [2] was 6.48 µM (active).
For CCCCCCCCOC(=O)c1cc([N+](=O)[O-])c(Sc2[nH]cnc3ncnc2-3)c([N+](=O)[O-])c1, the GI50 [12] was 0.912 µM (active), the AC50 [13] was 10.6 µM (active) and the GI50 [14] was 0.152 µM (active). The AC50 [15] was 11.5 µM (active), the AC50 [16] was 2.81 µM (active) and the GI50 [17] was 0.184 µM (active). For the same compound, the AC50 [18] was 2.18 µM (active).
With CCC(Sc1nc2ccsc2c(=O)n1Cc1ccc(C(=O)O)cc1)C(=O)Nc1cccc(OC)c1 (stereo unspecified) the AC50 [10] was 4.08 µM (active).
For CCCCCCCC(=O)O[C@H]1[C@H]2[C@@H](CC1(C)C)C(=O)[C@]13O[C@H]1C(=O)[C@]1(CO1)[C@]23C, the GI50 [12] was 3.33 µM (inactive), the GI50 [14] was 0.1 µM (active) and the GI50 [17] was 0.0904 µM (active).
In the case of CCCCc1oc2ccccc2c1C(=O)c1cc(I)c(OCCN(CC)CC)c(I)c1 [AMIODARONE HYDROCHLORIDE], the GI50 [12] is reported as 3.77 µM (inactive), the IC50 [19] is reported as > 20 µM (inactive) and the EC50 [20] is reported as 7.82 µM (active). The GI50 [17] was 5.06 µM (inactive) and the AC50 [21] was 4.87 µM (active).
